Patent US20230151010A1, “CRYSTALLINE FORMS OF (9R, 135S)-13- {4-[5-CHLORO-2-(4-CHLORO-1H,2,3- TRIAZOL- 1 -YL)PHENYL] -6-OXO- 1,6-DIHYDROPYRIMIDIN- 1-YL}-3-(DIFLUOROMETHYL)-9-METHYL-3,4,7,15- TETRAAZATRICYCLO [ 12.3.1.0 2·6] OCTADECA- 1(18), 2(6), 4, 14, 16-PENTAEN-8-ONE” (Bristol-Myers Squibb Company, priority 2020, published 2023)

Columns and labels:
Format in all cases: physicochemical
[1] = Dynamic vapor sorption (DVS)
Method: About 20 mg of the crystalline form was transferred into a dynamic vapor sorption instrument from Surface Measurement Systems Ltd. (SMS). The weight change was recorded relative to the relative humidity (Target RH %) at 25° C.
Crystalline Forms A and J were analyzed by dynamic vapor sorption (DVS) according to the conditions described in the General Procedures.

[2] = Hygroscopicity of forms from the polymorph preparations (method not given)
[3] = VT-PXRD analysis of form change
[4] = Thermogravimetric analysis (TGA); conditions: heating 10° C./min, nitrogen
Method: TA INSTRUMENT® models Q5000, Q500, or 2950 were used to generate TGA data. The measurement was made using standard TA Instruments Platinum pans. The measurement was made at a heating rate of 10° C./min, in a nitrogen environment from room temperature to 300° C., with a sample size about 10-30 mg.
Crystalline Forms A and J were analyzed by thermogravimetric analysis (TGA) according to the conditions described in the General Procedures. Exemplary TGA thermograms for Forms A and J are shown in FIGS. 4 and 13D, respectively.

C[C@@H]1CCC[C@H](n2cnc(-c3cc(Cl)ccc3-n3cc(Cl)nn3)cc2=O)c2cc(ccn2)-c2c(cnn2C(F)F)NC1=O [Form A, (9R,13S)-13-{4-[5-chloro-2-(4-chloro-1H-1,2,3-triazol-1-yl)phenyl]-6-oxo-1,6-dihydropyrimidin-1-yl}-3-(difluoromethyl)-9-methyl-3,4,7,15-tetraazatricyclo[12.3.1.0^2,6]octadeca-1(18),2(6),4,14,16-pentaen-8-one]
change of crystalline form after being subjected to DVS conditions ([1]; PXRD and IR post-DVS analysis): did not change | hygroscopicity indicated by DVS analysis ([1]; weight change vs relative humidity at 25° C.): not hygroscopic

C[C@@H]1CCC[C@H](n2cnc(-c3cc(Cl)ccc3-n3cc(Cl)nn3)cc2=O)c2cc(ccn2)-c2c(cnn2C(F)F)NC1=O [Form C, (9R,13S)-13-{4-[5-chloro-2-(4-chloro-1H-1,2,3-triazol-1-yl)phenyl]-6-oxo-1,6-dihydropyrimidin-1-yl}-3-(difluoromethyl)-9-methyl-3,4,7,15-tetraazatricyclo[12.3.1.0^2,6]octadeca-1(18),2(6),4,14,16-pentaen-8-one]
hygroscopicity [2]: non-hygroscopic | change in form on VT-PXRD analysis [3]: no change in form

C[C@@H]1CCC[C@H](n2cnc(-c3cc(Cl)ccc3-n3cc(Cl)nn3)cc2=O)c2cc(ccn2)-c2c(cnn2C(F)F)NC1=O [Form J, (9R,13S)-13-{4-[5-chloro-2-(4-chloro-1H-1,2,3-triazol-1-yl)phenyl]-6-oxo-1,6-dihydropyrimidin-1-yl}-3-(difluoromethyl)-9-methyl-3,4,7,15-tetraazatricyclo[12.3.1.0^2,6]octadeca-1(18),2(6),4,14,16-pentaen-8-one]
loss of weight in TGA ([4]; below about 250° C.): no significant loss of weight | onset of decomposition in TGA [4]: about 281 °C
